Assay results taken from PubChem BioAssay AID1963450 (Molecular Pharmacology Branch, DTP, NCI, 2024).

System: 556581-035-R-J1-PDC complex spheroid growth
Test: Anticancer human tumor 556581-035-R-J1-PDC patient-derived ovarian carcinoma cell line growth inhibition [Asc]
Settings: for IC50: curve of first compound; for viability, T/C: stronger effect = lower value
How it was run: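 Tumor cells were grown as complex spheroids with human endothelial cells (HUVEC) and human mesenchymal stem cells as stroma. Agents were tested alone and in combination, in half-log steps down from the clinical Cmax, or from 10 microM where Cmax was unknown.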

[1] = second compound 0.1 µM, first compound 0.000316 µM
[2] = second compound 0.1 µM, first compound 0.001 µM
[3] = second compound 0.1 µM, first compound 0.00316 µM
[4] = second compound 0.1 µM, first compound 0.01 µM
[5] = second compound 0.1 µM, first compound 0.0316 µM
[6] = second compound 0.1 µM, first compound 0.1 µM
[7] = second compound 0.316 µM, first compound 0.000316 µM
[8] = second compound 0.316 µM, first compound 0.001 µM
[9] = second compound 0.316 µM, first compound 0.00316 µM
[10] = second compound 0.316 µM, first compound 0.01 µM
[11] = second compound 0.316 µM, first compound 0.0316 µM
[12] = second compound 0.316 µM, first compound 0.1 µM
[13] = second compound 1 µM, first compound 0.000316 µM
[14] = second compound 1 µM, first compound 0.001 µM
[15] = second compound 1 µM, first compound 0.00316 µM
[16] = second compound 1 µM, first compound 0.01 µM
[17] = second compound 1 µM, first compound 0.0316 µM
[18] = second compound 1 µM, first compound 0.1 µM
[19] = second compound 3.16 µM, first compound 0.000316 µM
[20] = second compound 3.16 µM, first compound 0.001 µM
[21] = second compound 3.16 µM, first compound 0.00316 µM
[22] = second compound 3.16 µM, first compound 0.01 µM
[23] = second compound 3.16 µM, first compound 0.0316 µM
[24] = second compound 3.16 µM, first compound 0.1 µM
[25] = second compound 10 µM, first compound 0.000316 µM
[26] = second compound 10 µM, first compound 0.001 µM
[27] = second compound 10 µM, first compound 0.00316 µM
[28] = second compound 10 µM, first compound 0.01 µM
[29] = second compound 10 µM, first compound 0.0316 µM
[30] = second compound 10 µM, first compound 0.1 µM
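Also: spheroids exposed to agents for 7 days before viability read.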

Row | IC50 (second compound 0.1 µM) [nM] | IC50 (second compound 0.316 µM) [nM] | IC50 (second compound 1 µM) [nM] | SMILES | viability, T/C [1] [%] | viability, T/C [2] [%] | viability, T/C [3] [%] | viability, T/C [4] [%] | viability, T/C [5] [%] | viability, T/C [6] [%] | viability, T/C [7] [%] | viability, T/C [8] [%] | viability, T/C [9] [%] | viability, T/C [10] [%] | viability, T/C [11] [%] | viability, T/C [12] [%] | viability, T/C [13] [%] | viability, T/C [14] [%] | viability, T/C [15] [%] | viability, T/C [16] [%] | viability, T/C [17] [%] | also measured
1 | > 100 | > 100 | > 100 | Cn1ncnc1[C@H]1c2n[nH]c(=O)c3cc(F)cc(c23)N[C@@H]1c1ccc(F)cc1 + CNC(C)C(=O)NC1CN(S(=O)(=O)c2cccc(S(=O)(=O)N3CCC4CCC(C(=O)NC(c5ccccc5)c5ccccc5)N4C(=O)C(NC(=O)C(C)NC)C3)c2)CCC2CCC(C(=O)NC(c3ccccc3)c3ccccc3)N2C1=O | 92.7 | 73.7 | 65.5 | 69.2 | 69.2 | 62.2 | 76.3 | 74 | 63.8 | 74 | 77.4 | 69.9 | 78.8 | 77.6 | 71.1 | 69.5 | 71.8 | IC50 (second compound 0.01 µM): > 100 nM; IC50 (second compound 0.0316 µM): > 100 nM; viability, T/C (second compound 0.01 µM, first compound 0.000316 µM): 69.2%; viability, T/C (second compound 0.01 µM, first compound 0.001 µM): 69.1%; viability, T/C (second compound 0.01 µM, first compound 0.00316 µM): 80.4%; viability, T/C (second compound 0.01 µM, first compound 0.01 µM): 83.8%; viability, T/C (second compound 0.01 µM, first compound 0.0316 µM): 71.4%; viability, T/C (second compound 0.01 µM, first compound 0.1 µM): 72.9%; viability, T/C (second compound 0.0316 µM, first compound 0.000316 µM): 84.4%; viability, T/C (second compound 0.0316 µM, first compound 0.001 µM): 98.2%; viability, T/C (second compound 0.0316 µM, first compound 0.00316 µM): 79.2%; viability, T/C (second compound 0.0316 µM, first compound 0.01 µM): 77%; viability, T/C (second compound 0.0316 µM, first compound 0.0316 µM): 89.9%; viability, T/C (second compound 0.0316 µM, first compound 0.1 µM): 88.8%; viability, T/C [18]: 67%
2 | > 100 | > 100 | > 100 | Cn1ncnc1[C@H]1c2n[nH]c(=O)c3cc(F)cc(c23)N[C@@H]1c1ccc(F)cc1 + Cc1c(S(C)(=O)=O)c(-c2cc(F)cc(N3CCN(c4ccc(NS(=O)(=O)c5ccc(NC(CCN6CCC(C(=O)OCCCP(=O)(O)O)CC6)CSc6ccccc6)c(S(=O)(=O)C(F)(F)F)c5)cc4)CC3)c2)c(-c2ccc(Cl)cc2)n1C(C)C | 67.5 | 88 | 94.8 | 78 | 84.4 | 77.2 | 84.9 | 81.1 | 72 | 66.6 | 79.9 | 84 | 79.5 | 84.2 | 78.3 | 79.8 | 73.7 | IC50 (second compound 3.16 µM): > 100 nM; IC50 (second compound 10 µM): > 100 nM; viability, T/C [18]: 72.1%; viability, T/C [19]: 74.3%; viability, T/C [20]: 73.2%; viability, T/C [21]: 70.2%; viability, T/C [22]: 72.9%; viability, T/C [23]: 64.4%; viability, T/C [24]: 81.8%; viability, T/C [25]: 86.4%; viability, T/C [26]: 69.2%; viability, T/C [27]: 66.5%; viability, T/C [28]: 64.5%; viability, T/C [29]: 62.7%; viability, T/C [30]: 64.9%
3 | > 100 | > 100 | > 100 | NC1CCC(NC2CC2c2ccccc2)CC1 (stereo not given) + Cc1c(S(C)(=O)=O)c(-c2cc(F)cc(N3CCN(c4ccc(NS(=O)(=O)c5ccc(NC(CCN6CCC(C(=O)OCCCP(=O)(O)O)CC6)CSc6ccccc6)c(S(=O)(=O)C(F)(F)F)c5)cc4)CC3)c2)c(-c2ccc(Cl)cc2)n1C(C)C | 74.9 | 90.3 | 64.5 | 77.2 | 75.6 | 76.9 | 74 | 83.3 | 67.2 | 82.5 | 80.5 | 75.5 | 62.9 | 64 | 67.8 | 64.8 | 62.4 | IC50 (second compound 3.16 µM): > 100 nM; IC50 (second compound 10 µM): > 100 nM; viability, T/C [18]: 56.4%; viability, T/C [19]: 58.8%; viability, T/C [20]: 73.7%; viability, T/C [21]: 64.5%; viability, T/C [22]: 54.4%; viability, T/C [23]: 71.9%; viability, T/C [24]: 58.2%; viability, T/C [25]: 61.5%; viability, T/C [26]: 57.2%; viability, T/C [27]: 56.8%; viability, T/C [28]: 50.1%; viability, T/C [29]: 69.5%; viability, T/C [30]: 63.4%
